Assay results published in patent publication US20100204203A1, “Chemical Compounds 637: Pyridopyrimidinediones as PDE4 Inhibitors” (priority 2007, published 2010).

Biological target: recombinant Human Phosphodiesterase B2 (PDE4B2) (Homo sapiens, UniProt Q07343)
Test: Human Phosphodiesterase B2 Radiometric Assay (yttrium silicate SPA beads, [3H]cyclic AMP)
Format: biochemical
Details: recombinant human PDE4B2, radiometric SPA assay, 8 nM [3H]cyclic AMP; read-out: PDE4B2 pIC50 (converted)
How it was run: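 Read-out is scintillation proximity: yttrium silicate beads (with 18 mM ZnSO4, added to stop the reaction) bind 5′AMP formed from 8 nM [3H]cAMP over 20 min. Beforehand, compound and 0.1 mg/mL enzyme were preincubated 30 min at 30 °C in pH 7.5 HEPES buffer with MgCl2, EGTA and Brij 35; pIC50 values were curve-fitted.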

Chain of recombinant Human Phosphodiesterase B2 (PDE4B2) (Q07343 1-564 isoform Q07343-2): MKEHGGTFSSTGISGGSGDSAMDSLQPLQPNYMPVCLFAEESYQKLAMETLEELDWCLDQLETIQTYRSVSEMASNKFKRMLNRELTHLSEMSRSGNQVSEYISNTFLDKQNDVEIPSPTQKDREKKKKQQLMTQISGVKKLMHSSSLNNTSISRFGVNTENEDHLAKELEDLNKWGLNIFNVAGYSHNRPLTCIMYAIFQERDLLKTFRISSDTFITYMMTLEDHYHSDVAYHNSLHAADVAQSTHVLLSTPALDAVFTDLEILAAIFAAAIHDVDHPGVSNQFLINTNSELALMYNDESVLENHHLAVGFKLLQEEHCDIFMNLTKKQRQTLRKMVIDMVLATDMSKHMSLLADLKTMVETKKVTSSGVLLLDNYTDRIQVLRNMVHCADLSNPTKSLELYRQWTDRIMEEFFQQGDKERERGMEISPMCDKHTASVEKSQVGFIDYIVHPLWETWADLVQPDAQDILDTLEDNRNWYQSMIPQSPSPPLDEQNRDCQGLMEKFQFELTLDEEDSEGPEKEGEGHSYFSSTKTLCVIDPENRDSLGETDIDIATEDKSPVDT

IC50 [nM]	SMILES
0.0316	C[C@@H]1CN(Cc2ccc(-c3cccc(-n4c(=O)n([C@H]5CC[C@@H](NC(=O)c6ccc7ccccc7n6)CC5)c(=O)c5cc(F)cnc54)c3)cc2)C[C@H](C)N1 [Example 300, N-{cis-4-[1-(4′-{[(3R,5S)-3,5-dimethylpiperazin-1-yl]methyl}biphenyl-3-yl)-6-fluoro-2,4-dioxo-1,4-dihydropyrido[2,3-d]pyrimidin-3(2H)-yl]cyclohexyl} quinoline-2-carboxamide]
0.0398	Cc1nc(C(=O)N[C@H]2CC[C@@H](n3c(=O)c4cc(F)cnc4n(-c4cccc(-c5ccc(CN6C[C@@H](C)N[C@@H](C)C6)cc5)c4)c3=O)CC2)cs1 [Example 301, N-{cis-4-[1-(4′-{[(3R,5S)-3,5-dimethylpiperazin-1-yl]methyl}biphenyl-3-yl)-6-fluoro-2,4-dioxo-1,4-dihydropyrido[2,3-d]pyrimidin-3(2H)-yl]cyclohexyl}-2-methyl-1,3-thiazole-4-carboxamide]
0.1	CCCCc1ccc(C(=O)N[C@H]2CC[C@@H](n3c(=O)c4cc(F)cnc4n(-c4cccc(-c5ccc(CN6C[C@@H](C)N[C@@H](C)C6)cc5)c4)c3=O)CC2)nc1 [Example 302, 5-butyl-N-{cis-4-[1-(4′-{[(3R,5S)-3,5-dimethylpiperazin-1-yl]methyl}biphenyl-3-yl)-6-fluoro-2,4-dioxo-1,4-dihydropyrido[2,3-d]pyrimidin-3(2H)-yl]cyclohexyl} pyridine-2-carboxamide]
0.02	C[C@@H]1CN(Cc2ccc(-c3cccc(-n4c(=O)n([C@H]5CC[C@@H](NC(=O)c6cnc7ccccc7n6)CC5)c(=O)c5cc(F)cnc54)c3)cc2)C[C@H](C)N1 [Example 303, N-{cis-4-[1-(4′-{[(3R,5S)-3,5-dimethylpiperazin-1-yl]methyl}biphenyl-3-yl)-6-fluoro-2,4-dioxo-1,4-dihydropyrido[2,3-d]pyrimidin-3(2H)-yl]cyclohexyl} quinoxaline-2-carboxamide]
0.0501	C[C@@H]1CN(Cc2ccc(-c3cccc(-n4c(=O)n([C@H]5CC[C@@H](NC(=O)c6cc7ccccc7cn6)CC5)c(=O)c5cc(F)cnc54)c3)cc2)C[C@H](C)N1 [Example 304, N-{cis-4-[1-(4′-{[(3R,5S)-3,5-dimethylpiperazin-1-yl]methyl}biphenyl-3-yl)-6-fluoro-2,4-dioxo-1,4-dihydropyrido[2,3-d]pyrimidin-3(2H)-yl]cyclohexyl} isoquinoline-3-carboxamide]
0.0501	C[C@@H]1CN(Cc2ccc(-c3cccc(-n4c(=O)n([C@H]5CC[C@@H](NC(=O)c6nc7ccccc7[nH]6)CC5)c(=O)c5cc(F)cnc54)c3)cc2)C[C@H](C)N1 [Example 305, N-{cis-4-[1-(4′-{[(3R,5S)-3,5-dimethylpiperazin-1-yl]methyl}biphenyl-3-yl)-6-fluoro-2,4-dioxo-1,4-dihydropyrido[2,3-d]pyrimidin-3(2H)-yl]cyclohexyl}-1H-benzimidazole-2-carboxamide]
0.251	O=C(N[C@H]1CC[C@@H](n2c(=O)c3cc(F)cnc3n(-c3cccc(-c4ccc(CN5CCCOCC5)cc4)c3)c2=O)CC1)C1CC1 [Example 306, N-{cis-4-[6-fluoro-1-[4′-(1,4-oxazepan-4-ylmethyl)biphenyl-3-yl]-2,4-dioxo-1,4-dihydropyrido[2,3-d]pyrimidin-3(2H)-yl]cyclohexyl} cyclopropanecarboxamide]
2.51	O=C(N[C@H]1CC[C@@H](n2c(=O)c3cc(F)cnc3n(-c3cccc(-c4ccc(CN5CCCOCC5)cc4)c3)c2=O)CC1)c1ccc(OCCN2CCCC2)cc1 [Example 307, N-{cis-4-[6-fluoro-1-[4′-(1,4-oxazepan-4-ylmethyl)biphenyl-3-yl]-2,4-dioxo-1,4-dihydropyrido[2,3-d]pyrimidin-3(2H)-yl]cyclohexyl}-4-(2-pyrrolidin-1-ylethoxy)benzamide]
0.0631	Cc1cccc(C(=O)N[C@H]2CC[C@@H](n3c(=O)c4cc(F)cnc4n(-c4cccc(-c5ccc(CN6CCCN(C)CC6)cc5)c4)c3=O)CC2)n1 [Example 308, N-{cis-4-[6-fluoro-1-{4′-[(4-methyl-1,4-diazepan-1-yl)methyl]biphenyl-3-yl}-2,4-dioxo-1,4-dihydropyrido[2,3-d]pyrimidin-3 (2H)-yl]cyclohexyl}-6-methylpyridine-2-carboxamide]
0.1	Cc1nc(C(=O)N[C@H]2CC[C@@H](n3c(=O)c4cc(F)cnc4n(-c4cccc(-c5ccc(CN6CCCN(C)CC6)cc5)c4)c3=O)CC2)cs1 [Example 309, N-{cis-4-[6-fluoro-1-{4′-[(4-methyl-1,4-diazepan-1-yl)methyl]biphenyl-3-yl}-2,4-dioxo-1,4-dihydropyrido[2,3-d]pyrimidin-3(2H)-yl]cyclohexyl}-2-methyl-1,3-thiazole-4-carboxamide]
0.126	CN1CCCN(Cc2ccc(-c3cccc(-n4c(=O)n([C@H]5CC[C@@H](NC(=O)c6cc7c(o6)CCCC7=O)CC5)c(=O)c5cc(F)cnc54)c3)cc2)CC1 [Example 310, N-{cis-4-[6-fluoro-1-{4′-[(4-methyl-1,4-diazepan-1-yl)methyl]biphenyl-3-yl}-2,4-dioxo-1,4-dihydropyrido[2,3-d]pyrimidin-3(2H)-yl]cyclohexyl}-4-oxo-4,5,6,7-tetrahydro-1-benzofuran-2-carboxamide]
1	CN1CCCN(Cc2ccc(-c3cccc(-n4c(=O)n([C@H]5CC[C@@H](NC(=O)C(C)(C)N)CC5)c(=O)c5cc(F)cnc54)c3)cc2)CC1 [Example 311, N-{cis-4-[6-fluoro-1-{4′-[(4-methyl-1,4-diazepan-1-yl)methyl]biphenyl-3-yl}-2,4-dioxo-1,4-dihydropyrido[2,3-d]pyrimidin-3(2H)-yl]cyclohexyl}-2-methylalaninamide]
0.2	CN1CCCN(Cc2ccc(-c3cccc(-n4c(=O)n([C@H]5CC[C@@H](NC(=O)[C@@H](N)Cc6ccccc6)CC5)c(=O)c5cc(F)cnc54)c3)cc2)CC1 [Example 312, N-{cis-4-[6-fluoro-1-{4′-[(4-methyl-1,4-diazepan-1-yl)methyl]biphenyl-3-yl}-2,4-dioxo-1,4-dihydropyrido[2,3-d]pyrimidin-3(2H)-yl]cyclohexyl}-L-phenylalaninamide]
0.398	CC(C)[C@@H](N)C(=O)N[C@H]1CC[C@@H](n2c(=O)c3cc(F)cnc3n(-c3cccc(-c4ccc(CN5CCCN(C)CC5)cc4)c3)c2=O)CC1 [Example 313, N-{cis-4-[6-fluoro-1-{4′-[(4-methyl-1,4-diazepan-1-yl)methyl]biphenyl-3-yl}-2,4-dioxo-1,4-dihydropyrido[2,3-d]pyrimidin-3(2H)-yl]cyclohexyl}-D-valinamide]
0.398	CC(C)[C@H](N)C(=O)N[C@H]1CC[C@@H](n2c(=O)c3cc(F)cnc3n(-c3cccc(-c4ccc(CN5CCCN(C)CC5)cc4)c3)c2=O)CC1 [Example 314, N-{cis-4-[6-fluoro-1-{4′-[(4-methyl-1,4-diazepan-1-yl)methyl]biphenyl-3-yl}-2,4-dioxo-1,4-dihydropyrido[2,3-d]pyrimidin-3(2H)-yl]cyclohexyl}-L-valinamide]
0.158	COC[C@H](C)N(C)Cc1cc(O)ccc1-c1cccc(-n2c(=O)n([C@H]3CC[C@@H](NCc4cn5cc(F)ccc5n4)CC3)c(=O)c3cc(F)cnc32)c1 [Example 315, 6-fluoro-3-(cis-4-{[(6-fluoroimidazo[1,2-a]pyridin-2-yl)methyl]amino}cyclohexyl)-1-(4′-hydroxy-2′-{[[(1S)-2-methoxy-1-methylethyl](methyl)amino]methyl}biphenyl-3-yl)pyrido[2,3-d]pyrimidine-2,4(1H,3H)-dione]
0.0316	C[C@@H]1COCCN1Cc1cc(O)ccc1-c1cccc(-n2c(=O)n([C@H]3CC[C@@H](NCc4cn5cc(F)ccc5n4)CC3)c(=O)c3cc(F)cnc32)c1 [Example 316, 6-fluoro-3-(cis-4-{[(6-fluoroimidazo[1,2-a]pyridin-2-yl)methyl]amino}cyclohexyl)-1-(4′-hydroxy-2′-{[(3R)-3-methylmorpholin-4-yl]methyl}biphenyl-3-yl)pyrido[2,3-d]pyrimidine-2,4(1H,3H)-dione]
0.01	C[C@H]1COCCN1Cc1cc(O)ccc1-c1cccc(-n2c(=O)n([C@H]3CC[C@@H](NCc4cn5cc(F)ccc5n4)CC3)c(=O)c3cc(F)cnc32)c1 [Example 317, 6-fluoro-3-(cis-4-{[(6-fluoroimidazo[1,2-a]pyridin-2-yl)methyl]amino}cyclohexyl)-1-(4′-hydroxy-2′-{[(3S)-3-methylmorpholin-4-yl]methyl}biphenyl-3-yl)pyrido[2,3-d]pyrimidine-2,4(1H,3H)-dione]
0.631	C[C@H](CO)N(C)Cc1cc(O)ccc1-c1cccc(-n2c(=O)n([C@H]3CC[C@@H](NCc4cn5cc(F)ccc5n4)CC3)c(=O)c3cc(F)cnc32)c1 [Example 319, 6-fluoro-3-(cis-4-{[(6-fluoroimidazo[1,2-a]pyridin-2-yl)methyl]amino}cyclohexyl)-1-(4′-hydroxy-2′-{[[(1R)-2-hydroxy-1-methylethyl](methyl)amino]methyl}biphenyl-3-yl)pyrido[2,3-d]pyrimidine-2,4(1H,3H)-dione]
0.2	C[C@@H](O)CN(C)Cc1cc(O)ccc1-c1cccc(-n2c(=O)n([C@H]3CC[C@@H](NCc4cn5cc(F)ccc5n4)CC3)c(=O)c3cc(F)cnc32)c1 [Example 320, 6-fluoro-3-(cis-4-{[(6-fluoroimidazo[1,2-c]pyridin-2-yl)methyl]amino}cyclohexyl)-1-(4′-hydroxy-2′-{[[(2R)-2-hydroxypropyl](methyl)amino]methyl}biphenyl-3-yl)pyrido[2,3-d]pyrimidine-2,4(1H,3H)-dione]
0.1	CN(Cc1cc(O)ccc1-c1cccc(-n2c(=O)n([C@H]3CC[C@@H](NCc4cn5cc(F)ccc5n4)CC3)c(=O)c3cc(F)cnc32)c1)C1(CO)CC1 [Example 321, 6-fluoro-3-(cis-4-{[(6-fluoroimidazo[1,2-a]pyridin-2-yl)methyl]amino}cyclohexyl)-1-(4′-hydroxy-2′-{[[1-(hydroxymethyl)cyclopropyl](methyl)amino]methyl}biphenyl-3-yl)pyrido[2,3-c]pyrimidine-2,4(1H,3H)-dione]
